Results: patent US9717727B2, “Methods of treating and preventing leukemia and other cancers of the blood and bone” (The Trustees of Columbia University in the City of New York, priority 2011, dated 2017)
Entries after “also recorded” stand apart in the source; their conditions may differ. Like-named read-outs stand apart in the source and are kept apart here.

Columns and labels:
serotonin = conditions: six consecutive doses, cited from earlier work
EL4 cells = assay: Injection of EL4 cells pre-treated with LP-533401 or serotonin into syngeneic mice (Example 13); type: in vivo; conditions: cells treated before injection; LP-533401 0.1 to 1-fold serum concentration, serotonin 25 to 100 μM
Procedure: (§1) EL4 cells and WEH-3B cells, as described in Example 2, were treated with either LP-533401 or serotonin LP-533401 treatments were performed at 0.1 to 1-fold the amount equivalent to the LP-533401 serum concentration in mice treated with this compound. Serotonin was given at concentrations ranging from 25 to 100 μM, doses at which it affects the proliferation of cells expressing serotonin receptors (Kode et al. (2012); Yadav et al. (2008) Serafeim et al. (2003)).
EL4 cells treated with LP-533401 or serotonin were then injected into syngeneic mice as described in Example 2 to monitor leukemia engraftment, as commonly described for evaluating potential direct effects of compounds on leukemia cells (Moellering et al. (2009)).

[1] = test system: myeloid or the lymphoblastic leukemia cells; assay: Serotonin treatment of leukemia cells, proliferation or survival; type: cell-based
Procedure: as §1

## CCOC(=O)[C@@H](N)Cc1ccc(-c2cc(OC(c3ccc(-c4cccc(F)c4)cc3)C(F)(F)F)nc(N)n2)cc1 (some centres unmarked) [LP-615819]
serotonin; 30 mg/kg twice per day
  serotonin levels in the small intestine lowered: 55%
serotonin; 90 mg/kg twice per day
  serotonin levels in the small intestine lowered: 70%
serotonin; 30 or 90 mg/kg twice per day
  brain-derived serotonin: unchanged

## NCCc1c[nH]c2ccc(O)cc12 [serotonin, 5-hydroxytryptamine]
EL4 cells
  leukemia outcome (burden and lethality) after injection of pre-treated EL4 cells: neither implantation of serotonin-treated leukemia cells affected leukemia progression; also recorded: neither of the two treatments altered leukemia outcome
[1]
  proliferation or survival of leukemia cells: no effect
